Results from patent US20090075937A1, “LHRH ANTAGONISTS FOR THE TREATMENT OF LOWER URINARY TRACT SYMPTOMS” (AETERNA ZENTARIS GmbH, priority 2007, published 2009).

Experiments:
study subjects [1] = assay: Peroral treatment of study subjects with tetrahydrocarbazole compounds: nocturia frequency, urgency to urinate, frequency of emptying (Examples 4-9); type: in vivo, human; conditions: 50 to 150 mg perorally daily as a single dose, schemes of 6 weeks to 6 months
study subjects [2] = assay: Peroral treatment of study subjects with tetrahydrocarbazole compounds: chemical (hormonal) castration (Examples 4-9); type: in vivo, human; conditions: 50 to 150 mg perorally daily as a single dose, schemes of 6 weeks to 6 months
Procedure: In the course of the present invention, the terms “hormone” and “hormonal” within for instance the terms “hormone castration”, “chemical (hormonal) castration” or “hormone withdrawal symptoms” refer to follicle stimulating hormone (FSH), luteinizing hormone (LH) and/or testosterone. Preferably, chemical (hormonal) castration is a testosterone castration and refers to a testosterone blood level of equal or below 1.2 ng/mL, preferably 0.5 ng/mL.
Study subjects are treated with compound (76) with the following doses according to the following administration schemes: • in a 3 month trial, 75 mg or 150 mg compound (76) administered perorally daily as a single dose on day 2-7 of the menstrual cycle • in a 3 months trial, 75 mg, 100 mg or 150 mg compound (76) administered perorally daily as a single dose on day 2-7 of the menstrual cycle followed by a 3 months treatment-free period • in a 6 months trial, 75 mg or 150 mg compound (76) administered perorally daily as a single dose • 50 mg or 150 mg per compound (76) administered daily as a single dose over 42 days (6 weeks)
Study subjects are treated with compound (68) with the following doses according to the following administration schemes: • in a 3 month trial, 75 mg or 150 mg compound (68) administered perorally daily as a single dose on day 2-7 of the menstrual cycle • in a 3 months trial, 75 mg, 100 mg or 150 mg compound (68) administered perorally daily as a single dose on day 2-7 of the menstrual cycle followed by a 3 months treatment-free period • in a 6 months trial, 75 mg or 150 mg compound (68) administered perorally daily as a single dose • 50 mg or 150 mg per compound (68) administered daily as a single dose over 42 days (6 weeks)
Study subjects are treated with compound 36 with the following doses according to the following administration schemes: • in a 3 month trial, 75 mg or 150 mg compound 36 administered perorally daily as a single dose on day 2-7 of the menstrual cycle • in a 3 months trial, 75 mg, 100 mg or 150 mg compound 36 administered perorally daily as a single dose on day 2-7 of the menstrual cycle followed by a 3 months treatment-free period • in a 6 months trial, 75 mg or 150 mg compound 36 administered perorally daily as a single dose • 50 mg or 150 mg per compound 36 administered daily as a single dose over 42 days (6 weeks)
Study subjects are treated with compound 37 with the following doses according to the following administration schemes: • in a 3 month trial, 75 mg or 150 mg compound 37 administered perorally daily as a single dose on day 2-7 of the menstrual cycle • in a 3 months trial, 75 mg, 100 mg or 150 mg compound 37 administered perorally daily as a single dose on day 2-7 of the menstrual cycle followed by a 3 months treatment-free period • in a 6 months trial, 75 mg or 150 mg compound 37 administered perorally daily as a single dose • 50 mg or 150 mg per compound 37 administered daily as a single dose over 42 days (6 weeks)
Study subjects are treated with compound 52 with the following doses according to the following administration schemes: • in a 3 month trial, 75 mg or 150 mg compound 52 administered perorally daily as a single dose on day 2-7 of the menstrual cycle • in a 3 months trial, 75 mg, 100 mg or 150 mg compound 52 administered perorally daily as a single dose on day 2-7 of the menstrual cycle followed by a 3 months treatment-free period • in a 6 months trial, 75 mg or 150 mg compound 52 administered perorally daily as a single dose • 50 mg or 150 mg per compound 52 administered daily as a single dose over 42 days (6 weeks)

[3] = tested on: testosterone blood levels; assay: Median testosterone blood levels / chemical (hormonal) castration; conditions: blood level
Procedure: Preferably, chemical (hormonal) castration is a testosterone castration and refers to a testosterone blood level of equal or below 1.2 ng/mL, preferably 0.5 ng/mL.
Study subjects were treated with Cetrorelix pamoate with the following doses according to the following administration schemes: • 60 mg Cetrorelix pamaote administered at week 0 and 30 mg Cetrorelix pamaote administered at week 2 (treatment period) followed by up to 5 months of no treatment (treatment-free period) • 60 mg Cetrorelix pamaote administered at week 0 and 60 mg Cetrorelix pamaote administered at week 2 (treatment period) followed by up to 5 months of no treatment (treatment-free period)
Study subjects were treated with Cetrorelix acetate with the following doses according to the following administration schemes: • 5 mg Cetrorelix acetate administered at week 0, 1, 2 and 3 (total monthly dose of 20 mg) (treatment period) followed by up to 4 months of no treatment (treatment-free period) • 10 mg Cetrorelix acetate administered at week 0 and 10 mg Cetrorelix acetate administered at week 2 (treatment period) followed by up to 4 months of no treatment (treatment-free period) • 10 mg Cetrorelix acetate administered at week 0, 1, 2 and 3 (total monthly dose of 40 mg) (treatment period) followed by up to 4 months of no treatment (treatment-free period)
Study subjects were treated with Ozarelix with the following doses according to the following administration schemes: • 15 mg Ozarelix administered at week 0 and 15 mg Ozarelix administered at week 2 (treatment period) followed by up to 4 months of no treatment (treatment-free period)

study subjects [4] = assay: Nocturia: how often the study subjects got up during the night in order to urinate; type: in vivo, human; conditions: for Nocturia (n-times, mean): 15 + 15: 15 mg at week 0 and week 2
Source text: (§1) The results shown are percentage variations from baseline at the beginning of the study (week 0).
The results shown are mean values, how often the study subjects had to get up.

study subjects [5] = assay: IPSS irritative subscore (sum of nocturia, frequency of emptying and urgency to urinate); type: in vivo, human; conditions: for IPSS irritative subscore (nocturia, frequency of emptying, urgency to urinate): percentage variation from baseline
Source text: as §1

study subjects [6] = assay: Frequency of emptying: how often the study subjects had to urinate a second time within a 2 hour test period; type: in vivo, human; conditions: for Frequency of emptying (n-times, mean): 15 + 15: 15 mg at week 0 and week 2
Source text: as §1
The results shown are mean values, how often the study subjects had to urinate a second time.

study subjects [7] = assay: Urgency to urinate: how often the study subjects had difficulties to delay the urination; type: in vivo, human; conditions: for Urgency to urinate (n-times, mean): 15 + 15: 15 mg at week 0 and week 2
Source text: The results shown are mean values, how often the study subjects had difficulties.

[8] = 60 + 30: 60 mg week 0, 30 mg week 2, Week 0
[9] = 60 + 30: 60 mg week 0, 30 mg week 2, Week 4
[10] = 60 + 30: 60 mg week 0, 30 mg week 2, Week 8
[11] = 60 + 30: 60 mg week 0, 30 mg week 2, Week 12
[12] = 60 + 30: 60 mg week 0, 30 mg week 2, Week 16
[13] = 60 + 30: 60 mg week 0, 30 mg week 2, Week 20
[14] = 60 + 30: 60 mg week 0, 30 mg week 2, Week 24
[15] = 60 + 60: 60 mg week 0, 60 mg week 2, Week 0
[16] = 60 + 60: 60 mg week 0, 60 mg week 2, Week 4
[17] = 60 + 60: 60 mg week 0, 60 mg week 2, Week 8
[18] = 60 + 60: 60 mg week 0, 60 mg week 2, Week 12
[19] = 60+30 mg and 60+60 mg schemes, largest difference over weeks 4-24
[20] = 60 + 60: 60 mg week 0, 60 mg week 2, Week 16
[21] = 60 + 60: 60 mg week 0, 60 mg week 2, Week 20
[22] = 60 + 60: 60 mg week 0, 60 mg week 2, Week 24
[23] = 15+15 mg scheme, largest difference, n-times mean

CCC(C)[C@H](NC(=O)Cc1ccccc1F)C(=O)N[C@]1(C(=O)N[C@H](C(=O)NCN2CCOCC2)C(C)CC)CCc2[nH]c3c(C(F)(F)F)cccc3c2C1 (stereo partly drawn) [Compound 36, (R)-3-{(S)-2-[2-(2-Fluoro-phenyl)-acetylamino]-3-methyl-pentanoylamino}-8-trifluoromethyl-2,3,4,9-tetrahydro-1H-carbazole-3-carboxylic acid {(S)-2-methyl-1-[(morpholin-4-ylmethyl)-carbamoyl]-butyl}-amide]
nocturia frequency, urgency to urinate and/or frequency of emptying compared to placebo (study subjects [1]): decrease
chemical (hormonal) castration (study subjects [2]): successfully prevented

CCC(C)[C@H](NC(=O)Cc1ccccc1F)C(=O)N[C@]1(C(=O)N[C@H](C(=S)NCN2CCOCC2)C(C)CC)CCc2[nH]c3c(C(F)(F)F)cccc3c2C1 (stereo partly drawn) [Compound 37, (R)-3-{(S)-2-[2-(2-Fluoro-phenyl)-acetylamino]-3-methyl-pentanoylamino}-8-trifluoromethyl-2,3,4,9-tetrahydro-1H-carbazole-3-carboxylic acid {(S)-2-methyl-1-[(morpholin-4-ylmethyl)-thiocarbamoyl]-butyl}-amide]
nocturia frequency, urgency to urinate and/or frequency of emptying compared to placebo (study subjects [1]): decrease
chemical (hormonal) castration (study subjects [2]): successfully prevented

CCC(C)[C@H](NC(=O)Cc1ccccc1F)C(=O)N[C@]1(C(=O)N[C@H](C(=S)NCC2CCOCC2)C(C)CC)CCc2[nH]c3c(C(F)(F)F)cccc3c2C1 (stereo partly drawn) [Compound 52, (R)-3-{(S)-2-[2-(2-Fluoro-phenyl)-acetylamino]-3-methyl-pentanoylamino}-8-trifluoromethyl-2,3,4,9-tetrahydro-1H-carbazole-3-carboxylic acid {(S)-2-methyl-1-[K(tetrahydro-pyran-4-ylmethyl)-thiocarbamoyl]-butyl}-amide]
nocturia frequency, urgency to urinate and/or frequency of emptying compared to placebo (study subjects [1]): decrease
chemical (hormonal) castration (study subjects [2]): successfully prevented

CCC(C)[C@H](NC(=O)Cc1ccccc1F)C(=O)N[C@]1(C(=O)N[C@H](C(=O)NNc2ccccc2)C(C)CC)CCc2[nH]c3c(C(F)(F)F)cccc3c2C1 (stereo partly drawn) [Compound 144, (R)-3-{(S)-2-[2-(2-Fluoro-phenyl)-acetylamino]-3-methyl-pentanoylamino}-8-trifluoromethyl-2,3,4,9-tetrahydro-1H-carbazole-3-carboxylic acid [(S)-2-methyl-1-(N′-phenyl-hydrazinocarbonyl)-butyl]-amide]
nocturia frequency, urgency to urinate and/or frequency of emptying compared to placebo (study subjects [1]): decrease
chemical (hormonal) castration (study subjects [2]): successfully prevented

Cetrorelix pamoate
Testosterone [ng/mL] (median) [3, 8]: 3.96 ng/mL
Testosterone [ng/mL] (median) [3, 9]: 2.59 ng/mL
Testosterone [ng/mL] (median) [3, 10]: 4.01 ng/mL
Testosterone [ng/mL] (median) [3, 11]: 4.10 ng/mL
Testosterone [ng/mL] (median) [3, 12]: 3.96 ng/mL
Testosterone [ng/mL] (median) [3, 13]: 4.12 ng/mL
Testosterone [ng/mL] (median) [3, 14]: 4.30 ng/mL
Testosterone [ng/mL] (median) [3, 15]: 3.71 ng/mL
Testosterone [ng/mL] (median) [3, 16]: 2.19 ng/mL
Testosterone [ng/mL] (median) [3, 17]: 3.70 ng/mL
Testosterone [ng/mL] (median) [3, 18]: 3.73 ng/mL
further decrease in nocturia frequency compared to placebo (study subjects [4]; [19]): up to 11%
Nocturia (percentage variation from baseline) (study subjects [4]; [8]): 0%
Nocturia (percentage variation from baseline) (study subjects [4]; [9]): −14%
Nocturia (percentage variation from baseline) (study subjects [4]; [10]): −26%
Nocturia (percentage variation from baseline) (study subjects [4]; [11]): −27%
Nocturia (percentage variation from baseline) (study subjects [4]; [12]): −27%
Nocturia (percentage variation from baseline) (study subjects [4]; [13]): −33%
Nocturia (percentage variation from baseline) (study subjects [4]; [14]): −26%
Nocturia (percentage variation from baseline) (study subjects [4]; [15]): 0%
Nocturia (percentage variation from baseline) (study subjects [4]; [16]): −17%
Nocturia (percentage variation from baseline) (study subjects [4]; [17]): −26%
Nocturia (percentage variation from baseline) (study subjects [4]; [18]): −30%
Nocturia (percentage variation from baseline) (study subjects [4]; [20]): −25%
Nocturia (percentage variation from baseline) (study subjects [4]; [21]): −27%
Nocturia (percentage variation from baseline) (study subjects [4]; [22]): −29%
further decrease in IPSS irritative subscore compared to placebo (study subjects [5]; [19]): up to 30%
IPSS irritative subscore (nocturia, frequency of emptying, urgency to urinate) (study subjects [5]; [8]): 0%
IPSS irritative subscore (nocturia, frequency of emptying, urgency to urinate) (study subjects [5]; [9]): −14.8%
IPSS irritative subscore (nocturia, frequency of emptying, urgency to urinate) (study subjects [5]; [10]): −33.3%
IPSS irritative subscore (nocturia, frequency of emptying, urgency to urinate) (study subjects [5]; [11]): −29.3%
IPSS irritative subscore (nocturia, frequency of emptying, urgency to urinate) (study subjects [5]; [12]): −33.3%
IPSS irritative subscore (nocturia, frequency of emptying, urgency to urinate) (study subjects [5]; [13]): −33.3%
IPSS irritative subscore (nocturia, frequency of emptying, urgency to urinate) (study subjects [5]; [14]): −38%
IPSS irritative subscore (nocturia, frequency of emptying, urgency to urinate) (study subjects [5]; [15]): 0%
IPSS irritative subscore (nocturia, frequency of emptying, urgency to urinate) (study subjects [5]; [16]): −16.7%
IPSS irritative subscore (nocturia, frequency of emptying, urgency to urinate) (study subjects [5]; [17]): −25%
IPSS irritative subscore (nocturia, frequency of emptying, urgency to urinate) (study subjects [5]; [18]): −25%
IPSS irritative subscore (nocturia, frequency of emptying, urgency to urinate) (study subjects [5]; [20]): −25%
IPSS irritative subscore (nocturia, frequency of emptying, urgency to urinate) (study subjects [5]; [21]): −27.6%
IPSS irritative subscore (nocturia, frequency of emptying, urgency to urinate) (study subjects [5]; [22]): −40%
further decrease in frequency (of emptying) compared to placebo (study subjects [6]; [19]): up to 29%
Frequency of emptying (percentage variation from baseline) (study subjects [6]; [8]): 0%
Frequency of emptying (percentage variation from baseline) (study subjects [6]; [9]): −9%
Frequency of emptying (percentage variation from baseline) (study subjects [6]; [10]): −19%
Frequency of emptying (percentage variation from baseline) (study subjects [6]; [11]): −20%
Frequency of emptying (percentage variation from baseline) (study subjects [6]; [12]): −26%
Frequency of emptying (percentage variation from baseline) (study subjects [6]; [13]): −27%
Frequency of emptying (percentage variation from baseline) (study subjects [6]; [14]): −31%
Frequency of emptying (percentage variation from baseline) (study subjects [6]; [15]): 0%
Frequency of emptying (percentage variation from baseline) (study subjects [6]; [16]): −16%
Frequency of emptying (percentage variation from baseline) (study subjects [6]; [17]): −25%
Frequency of emptying (percentage variation from baseline) (study subjects [6]; [18]): −24%
Frequency of emptying (percentage variation from baseline) (study subjects [6]; [20]): −29%
Frequency of emptying (percentage variation from baseline) (study subjects [6]; [21]): −25%
Frequency of emptying (percentage variation from baseline) (study subjects [6]; [22]): −34%

Ozarelix
Testosterone [ng/mL] (median) ([3]; 15 + 15: 15 mg at week 0 and week 2, Week 0): 3.57 ng/mL
Testosterone [ng/mL] (median) ([3]; 15 + 15: 15 mg at week 0 and week 2, Week 4): 2.97 ng/mL
Testosterone [ng/mL] (median) ([3]; 15 + 15: 15 mg at week 0 and week 2, Week 8): 4.19 ng/mL
Testosterone [ng/mL] (median) ([3]; 15 + 15: 15 mg at week 0 and week 2, Week 12): 4.11 ng/mL
Testosterone [ng/mL] (median) ([3]; 15 + 15: 15 mg at week 0 and week 2, Week 16): 3.82 ng/mL
Testosterone [ng/mL] (median) ([3]; 15 + 15: 15 mg at week 0 and week 2, Week 20): 3.92 ng/mL
Testosterone [ng/mL] (median) ([3]; 15 + 15: 15 mg at week 0 and week 2, Week 24): 3.86 ng/mL
decrease in nocturia frequency compared to placebo (study subjects [4]; [23]): up to 0.76
Nocturia (n-times, mean) (study subjects [4]; Week 0): 2.73 n-times
Nocturia (n-times, mean) (study subjects [4]; Week 4): 1.83 n-times
Nocturia (n-times, mean) (study subjects [4]; Week 8): 1.43 n-times
Nocturia (n-times, mean) (study subjects [4]; Week 12): 1.54 n-times
Nocturia (n-times, mean) (study subjects [4]; Week 16): 1.54 n-times
Nocturia (n-times, mean) (study subjects [4]; Week 20): 1.50 n-times
Nocturia (n-times, mean) (study subjects [4]; Week 24): 1.54 n-times
decrease in urgency to urinate compared to placebo (study subjects [7]; [23]): up to 0.74
Urgency to urinate (n-times, mean) (study subjects [7]; Week 0): 2.80 n-times
Urgency to urinate (n-times, mean) (study subjects [7]; Week 4): 2.17 n-times
Urgency to urinate (n-times, mean) (study subjects [7]; Week 8): 1.89 n-times
Urgency to urinate (n-times, mean) (study subjects [7]; Week 12): 1.75 n-times
Urgency to urinate (n-times, mean) (study subjects [7]; Week 16): 1.39 n-times
Urgency to urinate (n-times, mean) (study subjects [7]; Week 20): 1.71 n-times
Urgency to urinate (n-times, mean) (study subjects [7]; Week 24): 1.89 n-times
decrease in frequency of emptying compared to placebo (study subjects [6]; [23]): up to 0.30
Frequency of emptying (n-times, mean) (study subjects [6]; Week 4): 2.48 n-times
Frequency of emptying (n-times, mean) (study subjects [6]; Week 8): 2.11 n-times
Frequency of emptying (n-times, mean) (study subjects [6]; Week 12): 1.82 n-times
Frequency of emptying (n-times, mean) (study subjects [6]; Week 16): 1.75 n-times
Frequency of emptying (n-times, mean) (study subjects [6]; Week 20): 1.71 n-times
Frequency of emptying (n-times, mean) (study subjects [6]; Week 24): 1.75 n-times
